Results from PubChem BioAssay AID588653 (The Scripps Research Institute Molecular Screening Center, 2011).

Biological target: Epidermal growth factor receptor (Homo sapiens) (UniProt P00533)
Assay: change in phospho-EGFR protein amount, up or down, late-stage follow-up, counter-screen for KLF5 inhibitor project, HT29 cells, chemiluminescent western blot, powder samples (AID 588653)
Conditions: p-EGFR western blot, 24 h, at 10 µM

Sequence of Epidermal growth factor receptor (Homo sapiens) (P00533 whole entry, looked up): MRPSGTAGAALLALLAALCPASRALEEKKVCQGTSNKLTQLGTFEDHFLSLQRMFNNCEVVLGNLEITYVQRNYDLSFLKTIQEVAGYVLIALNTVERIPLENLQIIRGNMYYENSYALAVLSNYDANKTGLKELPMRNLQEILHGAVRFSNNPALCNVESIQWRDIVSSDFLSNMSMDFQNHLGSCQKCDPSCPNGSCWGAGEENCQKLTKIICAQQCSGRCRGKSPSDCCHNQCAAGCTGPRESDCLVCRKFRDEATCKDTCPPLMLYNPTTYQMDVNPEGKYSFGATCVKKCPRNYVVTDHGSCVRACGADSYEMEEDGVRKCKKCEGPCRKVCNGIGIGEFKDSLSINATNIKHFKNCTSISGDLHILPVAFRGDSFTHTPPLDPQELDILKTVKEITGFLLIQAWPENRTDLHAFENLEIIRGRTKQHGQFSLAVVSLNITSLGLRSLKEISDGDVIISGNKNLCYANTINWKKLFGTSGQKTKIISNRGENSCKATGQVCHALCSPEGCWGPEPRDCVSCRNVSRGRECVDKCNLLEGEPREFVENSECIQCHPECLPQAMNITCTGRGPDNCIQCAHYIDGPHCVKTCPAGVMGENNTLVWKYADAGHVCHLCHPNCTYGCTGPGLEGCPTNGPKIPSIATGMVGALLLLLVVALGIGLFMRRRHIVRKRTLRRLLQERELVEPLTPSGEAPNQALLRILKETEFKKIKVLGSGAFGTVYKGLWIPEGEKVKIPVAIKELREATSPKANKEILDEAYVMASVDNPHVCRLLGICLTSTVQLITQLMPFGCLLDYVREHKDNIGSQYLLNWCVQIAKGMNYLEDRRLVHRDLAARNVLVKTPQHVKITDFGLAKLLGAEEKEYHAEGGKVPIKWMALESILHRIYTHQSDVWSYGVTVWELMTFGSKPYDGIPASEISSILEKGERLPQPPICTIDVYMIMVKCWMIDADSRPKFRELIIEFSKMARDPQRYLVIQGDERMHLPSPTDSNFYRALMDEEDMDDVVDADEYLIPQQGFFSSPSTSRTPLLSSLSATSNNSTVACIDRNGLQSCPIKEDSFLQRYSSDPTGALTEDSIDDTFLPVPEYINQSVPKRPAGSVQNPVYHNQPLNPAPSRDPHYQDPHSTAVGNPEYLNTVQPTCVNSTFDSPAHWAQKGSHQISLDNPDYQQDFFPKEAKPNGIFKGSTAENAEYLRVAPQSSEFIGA

inhibition [%]	SMILES
-47.5	CN(C(=O)COC(=O)/C=C/c1cccc([N+](=O)[O-])c1)C1CCS(=O)(=O)C1 (stereo not drawn)
-130	CN(C(=O)CNC(=O)/C=C/c1cccc(Cl)c1)C1CCS(=O)(=O)C1 (stereo not drawn)
-116	CN(C(=O)CNC(=O)/C=C/c1cccc(Cl)c1)C1CCS(=O)(=O)CC1
